Usually half-life stands for the time in which the quantity being followed falls by half. The low end stands for rapid decline, the high end for slow decline.

The conditions of this data set: rat; liver microsomes; pH 7.4; 15.0 min; 1.0 µM. Background: Microsomes from liver hold many membrane-bound enzymes, among them those of drug oxidation.
`CC(C)Oc1cccc(-c2csc(N3CCC(C(N)=O)CC3)n2)c1` had a half-life of 3.09 min. In turn, `CN(C)c1ccc(-c2cc[nH]c(=O)c2N)cc1` registered a half-life of over 30 min. Consider `Cn1c(=O)c2c(nc(Cl)n2Cc2ccc(Cl)cc2)n(C)c1=O`, for which the half-life is over 30 min. Then `O=[S+]([O-])(Nc1nccs1)c1ccc(NCc2cc(Cl)cc(Br)c2O)cc1`, with 12 min; and `O=C(NC1CCCc2c1cnn2-c1cccc(O)c1)c1ccccn1` (stereo unspecified), with 11.9 min. For `Cc1ccc(S(=O)(=O)Nc2cnccc2C(=O)Nc2nc(-c3ccccc3)cs2)cc1`, the half-life was determined as 14.3 min. On to `COc1ccc2[nH]c(S(=O)Cc3ncc(C)c(OC)c3C)nc2n1` (stereo unspecified), for which the half-life was 19.2 min. The half-life values of the last two compounds are within 1.5-fold of each other. As to `Cc1ccc(S(=O)(=O)NCCC(=O)Nc2nc(-c3ccccc3)cs2)cc1`, the half-life worked out at 2.4 min. In turn, `O=S(=O)(Nc1nc2ccccc2s1)c1ccc(NCc2ccc(Br)cc2O)cc1` had a half-life of over 30 min. With `Cc1ccc(Nc2nc(C)c(NC(=O)c3ccc(C)cc3)c(Nc3ccc(C)cc3)n2)cc1`, the half-life was 20.1 min. Compound `CCOC(=O)C1CCN(C(=O)Nc2ccc3c(c2)nc(C)n3C)CC1` returned a half-life of 1 min.

On to `CCOc1ccc(/C=C/c2nc3ccccc3n2S(=O)(=O)c2cccc(Cl)c2)cc1`, for which the half-life is over 30 min. With `CC(C)C[C@H]1C(=O)N2CCC[C@H]2[C@]2(O)O[C@](NC(=O)[C@@H]3C=C4c5cccc6[nH]c(Br)c(c56)C[C@H]4N(C)C3)(C(C)C)C(=O)N12`, the half-life was found to be 1.59 min. The figure for `Cc1[nH]c2ccccc2c1CN1CCN(c2ccccn2)CC1` is 1.7 min; for `Cc1noc(C)c1-c1cc(-c2ccc3c(c2)C(=O)NC3)cn2cncc12` it is over 30 min; for `O=C(O)Cc1ccc2oc(-c3ccc(NC(=O)/C=C/c4ccc(Br)cc4)c(F)c3)nc2c1` it is over 30 min. On to `Cc1cnc(-c2ccccc2C(F)F)nc1NCc1ccc(-c2cccnc2)cc1`, for which the half-life worked out at 8.1 min.

Take `CC(C)(C)NS(=O)(=O)c1ccc(-c2ccc3[nH]nc(N)c3c2)cc1`: the half-life came out at 17.2 min. Compound `COc1cccc(CNc2ccc(S(=O)(=O)Nc3cccc(N4CCNCC4)c3)cc2)c1O` came in with a half-life of over 30 min.

Turning to `CCc1ccccc1C(=O)N1CCc2cc(-c3nc(NC(=O)Cc4ccc5c(c4)OCO5)sc3C)ccc21`, the half-life was found to be 7.2 min. Turning to `Cc1cccc(CS(=O)(=O)c2ncc(Cl)c(C(=O)Nc3nc4ccc(F)cc4s3)n2)c1`, the half-life was 1.43 min. `O=C(Nc1nc(-c2ccccc2)cs1)c1ccncc1NS(=O)(=O)c1cccc(Cl)c1` had a half-life of 5 min.

`O=c1cc(CSc2ccc(Cl)cc2)nc(-c2ccccn2)[nH]1` had a half-life of 1.52 min. For the compound `Oc1ccc(CNc2ccccc2C(F)(F)F)c2cccnc12`, the half-life was 4.99 min.

Consider `Cc1ccccc1C(=O)N1CCc2cc(-c3nc(NC(=O)Cc4ccccc4)sc3C)ccc21`, for which the half-life turned out to be 24 min. This half-life lies about 4.8-fold higher than the previous one. Take `COc1c(O)ccc2c1CN1CCc3cc4c(cc3[C@@H]1C2)OCO4`: the half-life was 18.9 min. The compound `Cn1cc(C2=C(c3cn(CCCSC(=N)N)c4ccccc34)C(=O)NC2=O)c2ccccc21` registered a half-life of 4.4 min.

`Clc1ccc(C2(c3ccc(-c4cn[nH]c4)cc3)CCNCC2)cc1`: the half-life was over 30 min. Then `O=C(Nc1ccc(F)c(C(F)(F)F)c1)Nc1nnc(-c2ccncc2)s1`, with over 30 min. Then `COc1cc2c3cc1Oc1c(O)c(OC)cc4c1[C@@H](Cc1ccc(cc1)Oc1cc(ccc1O)C[C@H]3N(C)CC2)N(C)CC4`, with 29.8 min.

`CNc1sc(-c2cccc3ccccc23)nc1C#N` displayed a half-life of 12.9 min. For `CC(C)(C)c1ccc(C(=O)N2CC(=O)Nc3ccc(F)cc3C2c2ccc(F)cc2)cc1` (stereo unspecified), the half-life was 8.57 min. Against the preceding compound, the half-life is about 1.5-fold lower. For `Cc1ccc(S(=O)(=O)Nc2cnccc2C(=O)Nc2nc(-c3ccccc3Cl)cs2)cc1`, the half-life turned out to be 13 min. Compared with the last compound, the half-life is about 1.5-fold higher. Then `O=C(NCc1cccs1)c1cn2cc(-c3ccccc3)sc2n1`, with 12.7 min; and `COCCN1CCNc2nc(COc3ccc(C(C)C)cc3)n(Cc3ccccc3)c2C1=O`, with 1.82 min. With `COc1ccc(Cl)cc1C(=O)Nc1ccc(NC(=O)c2ccco2)cc1`, the half-life was over 30 min. With `Cc1cccc(-n2c(C)cc(C=C(C#N)C#N)c2C)c1`, the half-life came to 1.64 min. In turn, `c1cc(OCCN2CCCCC2)cc(-c2n[nH]c3ccc(-c4ncn[nH]4)cc23)c1` yielded a half-life of over 30 min.

`O=C1Nc2ccccc2/C1=C\c1ccc([N+](=O)[O-])cc1` yielded a half-life of 4.92 min. `COc1ccnc(NC(=S)N2CCN(c3ccc(Cl)c(Cl)c3)CC2)c1` registered a half-life of 20 min.

On to `Fc1cc(Nc2nc(-c3ccncc3)nc3ccccc23)ccc1-c1cccnc1`, for which the half-life was found to be 17 min. `O=C(NC1CCN(c2cc(-c3ccc(Cl)cc3)[nH]n2)C1)c1ccccc1` (stereo unspecified) registered a half-life of over 30 min. Then `COc1cc(Nc2nc(-c3ccncc3)nc3ccccc23)ccc1NS(C)(=O)=O`, with 22 min. Then `COc1cc2c(cc1OCCCN1CCCC1)N=C(N)C21CCC1`, with over 30 min; and `CCCc1ccc(NC(=O)c2ccc3c(c2)NC(=O)CS3)cc1`, with 1.5 min; and `COc1cccc(C(=O)Nc2nc(-c3nnn(-c4cc(C)ccc4C)c3C)ns2)c1`, with 17.6 min. Then `COc1cccc(CNc2ccc(S(=O)(=O)Nc3cccc(-c4ccccc4)c3)cc2)c1O`, with 17 min; and `OC(CCN1CCCCC1)c1ccc(-c2ccccc2)cc1` (stereo unspecified), with 4.73 min. Compound `C=Cc1ccc(Cn2c(C(=O)O)c(CNCc3ccccc3)c3ccc(OC)cc32)cc1` showed a half-life of 9.8 min. Compared with the last compound, the half-life is about 2.1-fold higher. The figure for `CCc1cccc(C)c1Nc1c(-c2ccc(N(C)C)cc2)nc2ncccn12` is 4.23 min. In the case of `CCCCOC(=O)c1ccnc2cc(C(OCCN3CCCCC3)c3ccccc3Cl)sc12` (stereo unspecified), the half-life came out at 3.32 min.

In the case of `CC(C)(C)c1ccc(S(=O)(=O)c2cnc(SCC(=O)Nc3ccc(F)c(Cl)c3)[nH]c2=O)cc1`, the half-life was determined as 5.92 min.

`Cc1cccc([C@H]2[C@@H]3C=CC[C@@H](C)[C@@H]3C(=O)N2Cc2ccccc2)c1` returned a half-life of 1.4 min. The figure for `Cc1ccc(-c2cc(C(=O)NCc3ccc(S(N)(=O)=O)cc3)c3ccccc3n2)cc1C` is 17 min; for `COc1ccc(CNC(=O)c2cnc3ccccc3n2)cc1` it is 9.3 min.

As for `CCOc1cccc(C(=O)Nc2nc3c(s2)CC(C(C)(C)C)CC3)c1` (stereo unspecified), the half-life is 9.74 min. This half-life and that of the compound before are within 1.5-fold of each other. `c1cc(-c2cc(-c3ccncc3)c3cncn3c2)c2[nH]ccc2c1` registered a half-life of 7.16 min.

Compound `O=C1CCCC2=C1C1(CCCC1)N=C(Nc1nc3ccccc3o1)N2` displayed a half-life of 2.7 min. Regarding `CC(=O)c1cccc(-c2csc3ncnc(Sc4nnnn4C)c23)c1`, the half-life stood at 3.08 min.

`CC(=O)Nc1ccc(-c2csc(N3CCC(C(N)=O)CC3)n2)cc1` registered a half-life of over 30 min. For `CC(C)(C)c1ccc(C(=O)Nc2cn3cc(-n4ccnc4)ccc3n2)cc1`, the half-life is over 30 min. `c1ccc(Nc2cc3c(cn2)CN(Cc2cccs2)CCN3)cc1` showed a half-life of 1.77 min. As to `CCCCOc1ccc(CC(=O)NO)cc1`, the half-life was over 30 min. Then `FC(F)(F)c1cccc(N2CCN(C(=S)Nc3nccc4ccccc34)CC2)c1`, with over 30 min; and `CCOc1ccc(CCNC(=O)c2cc3sccc3n2Cc2cccc(C)c2)cc1OCC`, with 1.8 min.

Regarding `COc1ccc(S(=O)(=O)N2CCN(C(=O)C3COc4ccccc4O3)CC2)cc1` (stereo unspecified), the half-life came out at 7.6 min. `CCOc1cc(CCNC(=O)c2cc3sccc3n2Cc2ccccc2)cc(F)c1OCC`: the half-life is 2 min. On to `Cc1ccc(-n2nc(C)c3c(-c4ccc(O)c(O)c4)c(C#N)c(N)nc32)cc1C`, for which the half-life is 15 min. `CCCn1cnc2cc(NCc3ccc(OC)cc3OC)ccc21` returned a half-life of 7.1 min. Then `COc1c2c(c3c(c1CCC(=O)O)OC(C)(C)C=C3)OC(C)(C)C=C2`, with over 30 min. Turning to `O=C(O)Cn1c(C(=O)Nc2nc(-c3ccccc3Cl)cs2)cc2ccccc21`, the half-life was over 30 min. The figure for `O=S(=O)(Nc1ccc2ccccc2c1)c1ccc(NCc2cccc(Cl)c2O)cc1` is 13 min; for `CCN1CCN(CC(=O)Nc2ccc(-c3cccc4c(=O)cc(N5CCOCC5)oc34)c3sc4ccccc4c23)CC1` it is over 30 min.

On to `CC(C(O)c1ccc(O)cc1)N1CCC(Cc2ccccc2)CC1` (stereo unspecified), for which the half-life was found to be 2.55 min. `Cn1cc(S(=O)(=O)N2CCOCC2)cc1C(=O)Nc1ccc(Cl)c(C(F)(F)F)c1` registered a half-life of over 30 min.

`CN(C)c1ccc(S(=O)(=O)N2CCCCC2)cc1NS(=O)(=O)c1ccc2ccccc2c1` gave a half-life of 1.34 min. In the case of `C=C1[C@@H](C)C2[C@H](Cc3ccccc3)NC(=O)[C@@]23C(/C=C/C[C@H](C)C[C@@](C)(O)/C=C/[C@@H]3OC(C)=O)[C@@H]1O` (stereo partly specified), the half-life turned out to be 5.2 min. Against the preceding compound, the half-life is about 3.9-fold higher. The figure for `COc1cc2cc(CN3CCC(N(C)C)C3)c(-c3cccc(Cl)c3)nc2cc1OC` (stereo unspecified) is 23.1 min; for `Cc1ccc(S(=O)(=O)Nc2cnccc2C(=O)Nc2nc(-c3ccncc3)cs2)cc1` it is 17 min.

`COc1cc(Nc2nc(-c3ccncc3)nc3ccccc23)ccc1F` displayed a half-life of 7.35 min. `COc1cccc2nc(-c3cccs3)nc(NN3C(=O)C=C(C)C3=O)c12` yielded a half-life of 4.26 min. Turning to `COc1cc(NC(=O)c2cc(-c3ccccc3O)no2)cc(OC)c1OC`, the half-life was found to be 12.5 min. In turn, `COc1ccc(C2Nc3ccccc3C(=O)N2Cc2ccco2)cc1COc1c(C)cc(NC(C)=O)cc1C` (stereo unspecified) gave a half-life of 1.6 min. Turning to `COc1ccc(Nc2nnc(-c3ccc(C)c(S(=O)(=O)NCc4nc5ccccc5[nH]4)c3)c3ccccc23)cc1`, the half-life stood at 5.72 min. Compared with the last compound, the half-life is about 3.6-fold higher. Then `O=C(NCCCn1ccnc1)c1nc(-c2ccccc2)cc2[nH]ccc12`, with over 30 min; and `CN(C)C(=O)C1CCN(c2nc(-c3ccc(Br)cc3)cs2)CC1`, with over 30 min. Then `COc1ccnc(NC(=S)N2CCN(c3cccc(C(F)(F)F)c3)CC2)c1`, with over 30 min; and `COc1ccc(OC)c(N2C(=O)C(Cl)=C(N3CCCCC3)C2=O)c1`, with 1.5 min; and `CC(C)CNc1ccnc(NCc2csc(-c3ccccc3)n2)n1`, with 2.07 min. Regarding `O=C(c1cnccn1)N1CCC2(CCCN(C(c3ccccc3)c3ccccc3)C2)CC1`, the half-life worked out at 1.8 min. The half-life values of the last two compounds are within 1.5-fold of each other. `O=S(=O)(Nc1cnc2ccccc2c1)c1ccc(NCc2cccc(Cl)c2O)cc1` had a half-life of 18 min.

The values are drawn from PubChem BioAssay AID1508591.
